Results taken from article PMC5845353, “The selective cathepsin K inhibitor MIV-711 attenuates joint pathology in experimental animal models of osteoarthritis” (Journal of Translational Medicine, 2018).
Where “and” joins values, the source holds several entries; their conditions need not be identical. Equal entries are not always repeated.

Columns and labels:
[1] = test system: dogs subjected to partial medial meniscectomy; assay: Dog partial medial meniscectomy study, sclerosis of subchondral bone and bone area; format: in vivo
Source text: Sclerosis of subchondral bone (an indication of altered load-bearing) was described and documented for femur using a comparison of medial to lateral, but was not included in the overall cartilage degeneration scores. This parameter was scored based on percent width of the medial femur with obviously thickened subchondral bone according to the following criteria: 0=normal 1=up to 10% of femur width has thickened trabeculae 2=11-30 % of femur width has thickened trabeculae 3=31-60 % of femur width has thickened trabeculae 4=61-90 % of femur width has thickened trabeculae 5=>90% of femur width has thickened trabeculae An additional measure of bone area was performed as follows: The photo file was opened and a fixed segment of 1000 by 400 pixels was selected with the bottom left and right corners touching the tidemark: The selected segment was opened in a new file and segmented into fourths: Black lines were drawn on the three segmenting lines in areas of no bone: Lengths of each individual drawn segment were summed per line for a total length of area of no bone, then divided by the total length of the image and calculated into a percent. Percent of no bone was calculated for each of the three segmented lines and then averaged for a mean percent of no bone for the image.

[2] = test system: rabbits subjected to anterior cruciate ligament transection (ACLT); assay: Rabbit ACLT study, modified Mankin scoring; format: in vivo
Procedure: The femora and tibias were decalcified, embedded in paraffin, sectioned at 5-7 µm at two different levels separated by approximately 2 mm, and stained with safranin O and toluidine blue.
Both tibial plateaus and femoral condyles were subjected to semi-quantitative scoring using a modified Mankin scoring system. Slides were evaluated in animal ID order, i.e. in random order with respect to treatment, so that the reader was effectively blinded to treatment assignment.
Analysis was performed on the tibial plateaus and femoral condyles at two levels (Level 1 and 2) for each:
Group 1) sham + vehicle; Group 2) ACLT + vehicle; Group 3) ACLT + MIV-711, 30 µmol/kg (low dose) and Group 4) ACLT + MIV-711, 100 µmol/kg (high dose).

[3] = dog partial medial meniscectomy, group Mean
[4] = dog partial medial meniscectomy, versus Vehicle group
[5] = Group 3: ACLT + MIV-711, 30 µmol/kg (low dose)
[6] = Group 4: ACLT + MIV-711, 100 µmol/kg (high dose)

With C#C[C@@H]1CN(C(=O)[C@H](CC(C)C)NC(=O)c2ccc(-c3nc(N4CCN(C)CC4)sc3F)cc2)[C@@H]2C(=O)CO[C@H]12 [MIV-711] the “Bone Score” value ([1]; MIV-711 group mean, sclerosis of subchondral bone) was 3.07, the “% inhibition, Bone Score” value ([1]; MIV-711 group vs vehicle) was 4% and the “Percent Length of no Bone, LFC Mean” value [1, 3] was 57%. For the same compound, the “Percent Length of no Bone, LFC Site 1” value [1, 3] was 59%, the “Percent Length of no Bone, LFC Site 2” value [1, 3] was 58% and the “Percent Length of no Bone, LFC Site 3” value [1, 3] was 54%. For the same compound, the “Percent Length of no Bone, MFC Mean” value [1, 3] was 39%, the “Percent Length of no Bone, MFC Site 1” value [1, 3] was 42% and the “Percent Length of no Bone, MFC Site 2” value [1, 3] was 39%. For the same compound, the “Percent Length of no Bone, MFC Site 3” value [1, 3] was 36%, the “Percent Length of no Bone, Overall Mean” value [1, 3] was 48% and the “Percent Length of no Bone, LFC Site 2” value ([1]; dog partial medial meniscectomy, individual animal, LFC site 2) was 50% and 62% and 55% and 63% and 66% and 57% and 51% and 54% and 59% and 45% and 60% and 72%. The “Percent Length of no Bone, LFC Site 3” value ([1]; dog partial medial meniscectomy, individual animal, LFC site 3) was 42% and 48% and 49% and 64% and 60% and 58% and 45% and 59% and 47% and 46% and 56% and 71% and 52%, the “Percent Length of no Bone, MFC Site 1” value ([1]; dog partial medial meniscectomy, individual animal, MFC site 1) was 47% and 50% and 24% and 35% and 52% and 38% and 36% and 57% and 44% and 48% and 51% and 21% and the “Percent Length of no Bone, MFC Site 2” value ([1]; dog partial medial meniscectomy, individual animal, MFC site 2) was 32% and 42% and 21% and 39% and 46% and 38% and 52% and 37% and 34% and 51% and 27% and 57% and 26% and 36%. The “Percent Length of no Bone, MFC Site 3” value ([1]; dog partial medial meniscectomy, individual animal, MFC site 3) was 34% and 33% and 21% and 36% and 51% and 24% and 32% and 22% and 49% and 44% and 41% and 40%, the “Percent Length of no Bone, LFC Site 1” value ([1]; dog partial medial meniscectomy, individual animal, lateral femoral condyle site 1) was 58% and 64% and 49% and 53% and 63% and 54% and 70% and 57% and 61% and 46% and 66% and 67% and the “Percent Length of no Bone, LFC Mean” value ([1]; dog partial medial meniscectomy, individual animal, mean of LFC sites 1-3) was 50% and 58% and 51% and 60% and 63% and 56% and 55% and 54% and 52% and 70%. The “Percent Length of no Bone, MFC Mean” value ([1]; dog partial medial meniscectomy, individual animal, mean of MFC sites 1-3) was 38% and 42% and 22% and 37% and 50% and 33% and 51% and 35% and 30% and 52% and 46%, the “Percent Length of no Bone, Overall Mean” value ([1]; dog partial medial meniscectomy, individual animal, overall mean LFC and MFC) was 44% and 50% and 37% and 48% and 56% and 45% and 53% and 54% and 46% and 49% and the “% inhibition of Percent Length of no Bone, LFC Mean” value [1, 4] was 1%. The “% inhibition of Percent Length of no Bone, LFC Site 1” value [1, 4] was -4%, the “% inhibition of Percent Length of no Bone, LFC Site 2” value [1, 4] was 2% and the “% inhibition of Percent Length of no Bone, LFC Site 3” value [1, 4] was 6%. For the same compound, the “% inhibition of Percent Length of no Bone, MFC Mean” value [1, 4] was -10%, the “% inhibition of Percent Length of no Bone, MFC Site 1” value [1, 4] was -12% and the “% inhibition of Percent Length of no Bone, MFC Site 2” value [1, 4] was 1%. For the same compound, the “% inhibition of Percent Length of no Bone, MFC Site 3” value [1, 4] was -21%, the “% inhibition of Percent Length of no Bone, Overall Mean” value [1, 4] was -3% and the “effects on subchondral bone sclerosis and bone area at the microscopic level” value ([1]; dog, 30 µmol/kg) was “no significant effects”. For the same compound, the “Bone Score” value ([1]; individual dogs of MIV-711 group, scoring of sclerosis of subchondral bone) was 5 and 3 and 4 and 2 and 1, the “effect on Mankin scores” value ([2]; ACLT rabbits, 30 and 100 µmol/kg) was “did not affect” and the “Total Mankin score Level 1+2_FC, mean” value [2, 5] was 58.86. For the same compound, the “Total Mankin score Level 1+2_FC, median” value [2, 5] was 58.00, the “Total Mankin score Level 1+2_LFC, mean” value [2, 5] was 21.14 and the “Total Mankin score Level 1+2_LFC, median” value [2, 5] was 17.00. The “Total Mankin score Level 1+2_LTP, mean” value [2, 5] was 9.71, the “Total Mankin score Level 1+2_LTP, median” value [2, 5] was 10.00 and the “Total Mankin score Level 1+2_MFC, mean” value [2, 5] was 37.71. For the same compound, the “Total Mankin score Level 1+2_MFC, median” value [2, 5] was 43.00, the “Total Mankin score Level 1+2_MTP, mean” value [2, 5] was 16.71 and the “Total Mankin score Level 1+2_MTP, median” value [2, 5] was 16.00. The “Total Mankin score Level 1+2_TP, mean” value [2, 5] was 26.43, the “Total Mankin score Level 1+2_TP, median” value [2, 5] was 26.00 and the “Total Mankin score Level 1_FC, mean” value [2, 5] was 32.14. The “Total Mankin score Level 1_FC, median” value [2, 5] was 32.00, the “Total Mankin score Level 1_LFC, mean” value [2, 5] was 12.00 and the “Total Mankin score Level 1_LFC, median” value [2, 5] was 10.00. For the same compound, the “Total Mankin score Level 1_LTP, mean” value [2, 5] was 5.57, the “Total Mankin score Level 1_LTP, median” value [2, 5] was 4.00 and the “Total Mankin score Level 1_MFC, mean” value [2, 5] was 20.14. The “Total Mankin score Level 1_MFC, median” value [2, 5] was 23.00, the “Total Mankin score Level 1_MTP, mean” value [2, 5] was 9.86 and the “Total Mankin score Level 1_MTP, median” value [2, 5] was 9.00. For the same compound, the “Total Mankin score Level 1_TP, mean” value [2, 5] was 15.43, the “Total Mankin score Level 1_TP, median” value [2, 5] was 16.00 and the “Total Mankin score Level 2_FC, mean” value [2, 5] was 26.71. For the same compound, the “Total Mankin score Level 2_FC, median” value [2, 5] was 26.00, the “Total Mankin score Level 2_LFC, mean” value [2, 5] was 9.14 and the “Total Mankin score Level 2_LFC, median” value [2, 5] was 7.00. For the same compound, the “Total Mankin score Level 2_LTP, mean” value [2, 5] was 4.14, the “Total Mankin score Level 2_LTP, median” value [2, 5] was 4.00 and the “Total Mankin score Level 2_MFC, mean” value [2, 5] was 17.57. For the same compound, the “Total Mankin score Level 2_MFC, median” value [2, 5] was 20.00, the “Total Mankin score Level 2_MTP, mean” value [2, 5] was 6.86 and the “Total Mankin score Level 2_MTP, median” value [2, 5] was 6.00. For the same compound, the “Total Mankin score Level 2_TP, mean” value [2, 5] was 11.00, the “Total Mankin score Level 2_TP, median” value [2, 5] was 12.00 and the “Total Mankin score Level 1+2_FC, mean” value [2, 6] was 49.71. For the same compound, the “Total Mankin score Level 1+2_FC, median” value [2, 6] was 51.00, the “Total Mankin score Level 1+2_LFC, mean” value [2, 6] was 21.14 and the “Total Mankin score Level 1+2_LFC, median” value [2, 6] was 21.00. The “Total Mankin score Level 1+2_LTP, mean” value [2, 6] was 12.71, the “Total Mankin score Level 1+2_LTP, median” value [2, 6] was 12.00 and the “Total Mankin score Level 1+2_MFC, mean” value [2, 6] was 28.57. For the same compound, the “Total Mankin score Level 1+2_MFC, median” value [2, 6] was 27.00, the “Total Mankin score Level 1+2_MTP, mean” value [2, 6] was 17.43 and the “Total Mankin score Level 1+2_MTP, median” value [2, 6] was 14.00. The “Total Mankin score Level 1+2_TP, mean” value [2, 6] was 30.14, the “Total Mankin score Level 1+2_TP, median” value [2, 6] was 27.00 and the “Total Mankin score Level 1_FC, mean” value [2, 6] was 25.43. The “Total Mankin score Level 1_FC, median” value [2, 6] was 29.00, the “Total Mankin score Level 1_LFC, mean” value [2, 6] was 10.57 and the “Total Mankin score Level 1_LFC, median” value [2, 6] was 10.00. The “Total Mankin score Level 1_LTP, mean” value [2, 6] was 6.29, the “Total Mankin score Level 1_LTP, median” value [2, 6] was 7.00 and the “Total Mankin score Level 1_MFC, mean” value [2, 6] was 14.86. For the same compound, the “Total Mankin score Level 1_MFC, median” value [2, 6] was 15.00, the “Total Mankin score Level 1_MTP, mean” value [2, 6] was 9.29 and the “Total Mankin score Level 1_MTP, median” value [2, 6] was 8.00. The “Total Mankin score Level 1_TP, mean” value [2, 6] was 15.57, the “Total Mankin score Level 1_TP, median” value [2, 6] was 16.00 and the “Total Mankin score Level 2_FC, mean” value [2, 6] was 24.29. The “Total Mankin score Level 2_FC, median” value [2, 6] was 23.00, the “Total Mankin score Level 2_LFC, mean” value [2, 6] was 10.57 and the “Total Mankin score Level 2_LFC, median” value [2, 6] was 10.00. The “Total Mankin score Level 2_LTP, mean” value [2, 6] was 6.43, the “Total Mankin score Level 2_LTP, median” value [2, 6] was 6.00 and the “Total Mankin score Level 2_MFC, mean” value [2, 6] was 13.71. The “Total Mankin score Level 2_MFC, median” value [2, 6] was 13.00, the “Total Mankin score Level 2_MTP, mean” value [2, 6] was 8.14 and the “Total Mankin score Level 2_MTP, median” value [2, 6] was 7.00. For the same compound, the “Total Mankin score Level 2_TP, mean” value [2, 6] was 14.57 and the “Total Mankin score Level 2_TP, median” value [2, 6] was 14.00.
